Experimental data taken from US9422293B2 (priority 2006, dated 2016).
Where a name gives a salt, the structure may show the parent alone.

Biological target: rat TRPV1 (Rattus norvegicus (Rat), UniProt O35433)
Conditions: read-out: Rat IC50

Chain of rat TRPV1 (O35433 whole entry): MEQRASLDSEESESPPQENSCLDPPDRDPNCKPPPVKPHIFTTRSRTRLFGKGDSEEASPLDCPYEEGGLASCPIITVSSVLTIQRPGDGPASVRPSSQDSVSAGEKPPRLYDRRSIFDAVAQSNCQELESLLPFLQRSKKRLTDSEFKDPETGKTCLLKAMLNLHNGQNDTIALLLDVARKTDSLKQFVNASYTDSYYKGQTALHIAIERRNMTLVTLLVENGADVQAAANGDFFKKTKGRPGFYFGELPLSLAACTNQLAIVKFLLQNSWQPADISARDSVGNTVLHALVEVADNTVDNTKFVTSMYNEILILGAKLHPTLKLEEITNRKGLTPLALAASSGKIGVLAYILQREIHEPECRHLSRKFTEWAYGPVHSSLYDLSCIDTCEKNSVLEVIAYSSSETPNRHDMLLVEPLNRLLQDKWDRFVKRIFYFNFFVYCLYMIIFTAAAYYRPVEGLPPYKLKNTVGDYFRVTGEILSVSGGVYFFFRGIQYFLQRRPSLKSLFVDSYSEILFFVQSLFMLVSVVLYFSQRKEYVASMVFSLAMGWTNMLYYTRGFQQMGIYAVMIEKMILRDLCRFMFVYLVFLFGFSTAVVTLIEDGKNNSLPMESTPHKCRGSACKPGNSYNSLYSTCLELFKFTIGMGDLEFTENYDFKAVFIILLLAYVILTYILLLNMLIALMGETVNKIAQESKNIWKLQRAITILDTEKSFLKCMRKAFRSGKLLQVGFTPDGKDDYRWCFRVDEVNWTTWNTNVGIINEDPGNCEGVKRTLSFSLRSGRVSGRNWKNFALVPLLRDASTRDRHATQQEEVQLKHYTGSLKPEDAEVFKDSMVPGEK

| Compound | IC50 |
| --- | --- |
| FC(F)(F)c1ccc(Nc2ncnc3c2CCN(c2cnc4ccccc4n2)CC3)cc1 [Example 29, (7-Quinoxalin-2-yl-6,7,8,9-tetrahydro-5H-pyrimido[4,5-d]azepin-4-yl)-(4-trifluoromethyl-phenyl)-amine] | 340 nM |
| NC(=O)c1cccnc1N1CCc2ncnc(Nc3ccc(C(F)(F)F)cc3)c2CC1 [Example 294, 2-(4-{[4-(Trifluoromethyl)phenyl]amino}-5,6,8,9-tetrahydro-7H-pyrimido[4,5-d]azepin-7-yl)pyridine-3-carboxamide trifluoroacetic acid salt] | 2940 nM |
| Cc1cc(C(F)(F)F)ccc1Nc1nc(OC2CCCC2)nc2c1CCN(c1ncccc1C(F)(F)F)CC2 [Example 310, 2-(Cyclopentyloxy)-N-[2-methyl-4-(trifluoromethyl)phenyl]-7-[3-(trifluoromethyl)pyridin-2-yl]-6,7,8,9-tetrahydro-5H-pyrimido[4,5-d]azepin-4-amine] | 70 nM |
| CC(C)c1nc2c(c(NCCc3ccc(Cl)cc3)n1)CCN(c1ncccc1C(F)(F)F)CC2 [Example 124, N-[2-(4-Chlorophenyl)ethyl]-2-(1-methylethyl)-7-[3-(trifluoromethyl)pyridin-2-yl]-6,7,8,9-tetrahydro-5H-pyrimido[4,5-d]azepin-4-amine] | 570 nM |
| CC(C)c1ccc(Nc2nc(C(C)C)nc3c2CCN(c2ncccc2C(F)(F)F)CC3)cc1 [Example 137, 2-(1-Methylethyl)-N-[4-(1-methylethyl)phenyl]-7-[3-(trifluoromethyl)pyridin-2-yl]-6,7,8,9-tetrahydro-5H-pyrimido[4,5-d]azepin-4-amine] | 60 nM |
| COC(=O)c1ccc(Nc2nc(N(C)C)nc3c2CCN(c2ncccc2C(F)(F)F)CC3)cc1 [Example 77B, 4-[2-Dimethylamino-7-(3-trifluoromethyl-pyridin-2-yl)-6,7,8,9-tetrahydro-5H-pyrimido[4,5-d]azepin-4-ylamino]-benzoic acid methyl ester trifluoroacetic acid salt] | 580 nM |
| CC(C)(C)c1ccc(Nc2nc(N3CCOCC3)nc3c2CCN(c2ncccc2C(F)(F)F)CC3)cc1 [Example 47, (4-tert-Butyl-phenyl)-[2-morpholin-4-yl-7-(3-trifluoromethyl-pyridin-2-yl)-6,7,8,9-tetrahydro-5H-pyrimido[4,5-d]azepin-4-yl]-amine] | 23 nM |
| OCC1CN(c2nc3c(c(Nc4ccc(C(F)(F)F)cc4)n2)CCN(c2ncccc2C(F)(F)F)CC3)CCO1 (centres unmarked) [Example 271, [4-(4-{[4-(Trifluoromethyl)phenyl]amino}-7-[3-(trifluoromethyl)pyridin-2-yl]-6,7,8,9-tetrahydro-5H-pyrimido[4,5-d]azepin-2-yl)morpholin-2-yl]methanol] | 840 nM |
| CC(C)c1nc2c(c(Nc3ccc(C(C)(C)C)cc3)n1)CCN(c1ncc(N)cc1C(F)(F)F)CC2 [Example 201, 7-[5-Amino-3-(trifluoromethyl)pyridin-2-yl]-N-[4-(1,1-dimethylethyl)phenyl]-2-(1-methylethyl)-6,7,8,9-tetrahydro-5H-pyrimido[4,5-d]azepin-4-amine] | 320 nM |
| FC(F)(F)c1ccc(Nc2nc(OC3CCOCC3)nc3c2CCN(c2ncccc2C(F)(F)F)CC3)cc1 [Example 339, 2-(Tetrahydro-2H-pyran-4-yloxy)-N-[4-(trifluoromethyl)phenyl]-7-[3-(trifluoromethyl)pyridin-2-yl]-6,7,8,9-tetrahydro-5H-pyrimido[4,5-d]azepin-4-amine] | 190 nM |
| Cc1ccc(Nc2nc(C(C)C)nc3c2CCN(c2ncccc2C(F)(F)F)CC3)cc1 [Example 151, 2-(1-Methylethyl)-N-(4-methylphenyl)-7-[3-(trifluoromethyl)pyridin-2-yl]-6,7,8,9-tetrahydro-5H-pyrimido[4,5-d]azepin-4-amine hydrochloride salt] | 820 nM |
